Assay results from PMC5318888, “SAMHD1 enhances nucleoside-analogue efficacy against HIV-1 in myeloid cells” (Scientific Reports, 2017).
Values joined by “and” are separate entries in the source; they are usually repeats but may differ in a detail not shown here. Identical values can stand only once. Like-named read-outs stand apart in the source and are kept apart here.

Legend:
Assay type in all cases: cell-based
[1] = system: HIV-1-GFP; assay: Anti-HIV-1 activity in THP-1 cells with or without Vpx transduction
Protocol: (§1) Antiviral assays were further performed in monocytoid cells transduced with YFP-expressing VLPs containing WT SAMHD1, HD206-7AA or Vpx. Briefly, U937 cells (6 × 10^5 cells/mL) were transduced with WT SAMHD1-YFP or HD206-7AA-YFP VLPs by spinoculation at 800 × g for 90 min in the presence of 1 μg/mL polybrene. Similarly, THP-1 cells (6 × 10^5 cells/mL) were transduced with Vpx-YFP VLPs by spinoculation at 800 × g for 90 min in the presence of 1 μg/mL polybrene. Cells were incubated at 37 °C in 5% CO2 and after 72 h, PMA^+ cells (6 × 10^5 cells/mL) were treated with 100 nM PMA and PMA^− cells (7.5 × 10^4 cells/mL) were left untreated. Cells were then incubated at 37 °C in 5% CO2 for 48 h. Nucleoside analogues were added at increasing concentrations (0–200 μM; except CFB, 0–1.6 μM) and cells were further incubated for 48 h. PMA^− cells were then infected with HIV-1-GFP by spinoculation at 800 × g for 90 min in the presence of 1 μg/mL polybrene, PMA^+ cells were infected with HIV-1-GFP in the presence of 1 μg/mL polybrene only. Cells were incubated for 72 h at 37 °C in 5% CO2 and then analysed by two-colour flow cytometry using a Fortessa X20 analyser (BD Biosciences). Data were analysed using the FlowJo software suite.
(§2) The cytotoxic concentration of nucleoside analogue that inhibits cell viability by 50% (CC50) and the effective concentration of nucleoside analogue that inhibits infection of cells by 50% (EC50) were calculated for each independent experiment by non-linear regression using GraphPad Prism v6.00 for Windows (GraphPad Software, San Diego, CA). Non-ambiguous values were subjected to a replicate test to calculate confidence intervals of 95% (95% CI). CC50 and EC50 values were determined for at least two independent experiments for each nucleoside analogue and a selectivity index (SI) also calculated, (SI = CC50/EC50). EC50 values for each replicate were used to perform an unpaired two-tailed t-test to determine significant differences between U937 cells expressing SAMHD1 wt or HD206-7AA mutant and THP-1 cells expressing Vpx or untransduced cells. P values of <0.005 were considered statistically significant.

[2] = system: HIV-1-GFP; assay: Anti-HIV-1 activity in U937 cells transduced with wt SAMHD1 or HD206-7AA mutant
Protocol: as §1, §2

[3] = system: HIV-1-GFP; assay: microbe, parasite or virus in culture
Protocol: Cells were then infected with HIV-1-GFP by spinoculation at 800 × g for 90 min in the presence of 1 μg/mL polybrene, and further incubated at 37 °C in 5% CO2 for 72 h. […] Cells were then infected with HIV-1-GFP by spinoculation at 800 × g for 90 min in the presence of 1 μg/mL polybrene, and further incubated at 37 °C in 5% CO2 for 72 h. Non-dividing U937 and THP-1 (PMA^+) cells (6 × 10^5 cells/mL) were differentiated by addition of 100 nM PMA (PMA^+) for 48 h and treated with increasing concentrations of nucleoside analogues as described above. Cells were then infected with HIV-1-GFP in the presence of 1 μg/mL polybrene and further incubated at 37 °C in 5% CO2 for 72 h. The percentage of GFP^+cells was determined by one-colour flow cytometry using a Fortessa X20 analyser (BD Biosciences) and the data analysed using the FlowJo software suite.
Non-ambiguous values were subjected to a replicate test to calculate confidence intervals of 95% (95% CI). CC50 and EC50 values were determined for at least two independent experiments for each nucleoside analogue and a selectivity index (SI) also calculated, (SI = CC50/EC50). EC50 values for each replicate were used to perform an unpaired two-tailed t-test to determine significant differences between U937 cells expressing SAMHD1 wt or HD206-7AA mutant and THP-1 cells expressing Vpx or untransduced cells. P values of <0.005 were considered statistically significant.

[4] = system: U937 cells; assay: Cytotoxicity, live cells by flow cytometry, U937 cells (PMA−/PMA+); details: human, 48 h
Protocol: (§3) H9, Jurkat and undifferentiated U937 and THP-1 (PMA^−) cells (6 × 10^5 cells/mL) were treated with increasing concentrations of nucleoside analogues (0–200 μM; except CFB, 0–1.6 μM) and incubated at 37 °C in 5% CO2 for 48 h. Medium was then replaced and cells were further incubated for 72 h. Non-dividing U937 and THP-1 (PMA^+) cells (6 × 10^5 cells/mL) were differentiated by addition of 100 nM phorbol-12-myristate-13-acetate (PMA^+) for 48 h and then treated with increasing concentrations of nucleoside analogues as described above. The percentage of live cells was determined by flow cytometry using Live/Dead fixable blue-fluorescent dyes (Invitrogen) and a Fortessa X20 analyser (BD Biosciences). Data were analysed using the FlowJo software suite.
as §2

[5] = as above; details: human
Protocol: as §3, §2

[6] = Human immunodeficiency virus 1, THP-1, read-out: EC50 [95% CI], THP1 PMA+, Vpx+
[7] = Human immunodeficiency virus 1, THP-1, read-out: EC50 [95% CI], THP1 PMA+, Vpx−
[8] = Human immunodeficiency virus 1, THP-1, read-out: EC50 [95% CI], THP1 PMA−, Vpx+
[9] = Human immunodeficiency virus 1, THP-1, read-out: EC50 [95% CI], THP1 PMA−, Vpx−
[10] = Human immunodeficiency virus 1, U-937, read-out: EC50 [95% CI], U937 PMA+, HD206/7AA+ population
[11] = Human immunodeficiency virus 1, U-937, read-out: EC50 [95% CI], U937 PMA+, SAMHD1+ population
[12] = Human immunodeficiency virus 1, U-937, read-out: EC50 [95% CI], U937 PMA−, HD206/7AA+ population
[13] = Human immunodeficiency virus 1, U-937, read-out: EC50 [95% CI], U937 PMA−, SAMHD1+ population
[14] = U937 PMA−, HD206/7AA+ population
[15] = Human immunodeficiency virus 1, H9, read-out: EC50 anti-HIV-1, H9 cells
[16] = Human immunodeficiency virus 1, Jurkat, read-out: EC50 anti-HIV-1, Jurkat cells

Compound	EC50 [1, 6]	EC50 [1, 7]	EC50 [1, 8]	EC50 [1, 9]	Fold (EC50 Vpx+ vs Vpx−) ([1]; THP1 PMA+)	EC50 [2, 10]	EC50 [2, 11]	EC50 [2, 12]	EC50 [2, 13]	Fold (EC50 HD206/7AA vs SAMHD1) ([2]; U937 PMA+)	EC50 [95% CI] [2, 14]	EC50 [95% CI] ([2]; U937 PMA−, SAMHD1+ population)	EC50 [3, 15]	EC50 [3, 16]	CC50 [4]	CC50 at 48 h [5]	Fold (EC50 Vpx+ vs Vpx−) ([1]; THP1 PMA−)	Fold (EC50 HD206/7AA vs SAMHD1) ([2]; U937 PMA−)	EC50 anti-HIV-1 ([3]; H9 cells)	SI, selectivity index CC50/EC50 ([3]; H9 cells)	further results
Nc1nc2c(ncn2COCCO)c(=O)[nH]1 [ACV, Acycloguanosine]	29600 nM	1080 nM	> 200000 nM	> 200000 nM	27 fold	50900 nM	652 nM	> 200000 nM	> 200000 nM	78 fold	no anti-HIV-1 activity	no anti-HIV-1 activity	> 200000 nM	> 200000 nM	> 200000 nM	> 200000 nM	–	–	–	–	–
Nc1nc(O)c2ncn(COC(CO)CO)c2n1 [GCV, 2′-Nor-2′-deoxyguanosine]	> 200000 nM	632 nM	> 200000 nM	> 200000 nM	>316 fold	> 200000 nM	876 nM	> 200000 nM	> 200000 nM	–	no anti-HIV-1 activity	no anti-HIV-1 activity	> 200000 nM	> 200000 nM	> 200000 nM	> 200000 nM	–	–	–	–	–
Cc1nnc(C(=O)NC(C)(C)c2nc(C(=O)NCc3ccc(F)cc3)c(O)c(=O)n2C)o1 [RAL, Raltegravir]	37 nM	38 nM	43 nM	35 nM	1 fold	75 nM	70 nM	12 nM	11 nM	1 fold	–	–	2 nM	4 nM	–	–	1 fold	1 fold	nanomolar concentrations	> 100000	EC50 anti-HIV-1 ([3]; Jurkat cells): nanomolar concentrations; CC50 at 48 h ([5]; U937 PMA+, read-out: CC50): > 200000 nM; CC50 at 48 h ([5]; U937 PMA−, read-out: CC50): > 200000 nM
Cc1ccnc2c1NC(=O)c1cccnc1N2C1CC1 [NVP, Nevirapine]	235 nM	223 nM	292 nM	244 nM	1 fold	145 nM	97 nM	124 nM	112 nM	1 fold	–	–	158 nM	486 nM	–	–	1 fold	1 fold	nanomolar concentrations	> 1266	EC50 anti-HIV-1 ([3]; Jurkat cells): nanomolar concentrations; CC50 at 48 h ([5]; PMA-differentiated, non-dividing U937 cells (PMA+), U937 PMA+, read-out: CC50): > 200000 nM; CC50 at 48 h ([5]; undifferentiated U937 cells (PMA−), U937 PMA−, read-out: CC50): > 200000 nM
Cc1cn([C@H]2C=C[C@@H](CO)O2)c(=O)[nH]c1=O [d4T, 2′,3′-didehydro-2′,3′-dideoxythymidine]	52200 nM	1490 nM	13300 nM	4390 nM	35 fold	5820 nM	528 nM	2710 nM	801 nM	11 fold	–	–	< 10000 nM	< 10000 nM	> 200000 nM	> 200000 nM	–	3 fold	–	> 36 and > 30	SI, selectivity index CC50/EC50 ([3]; Jurkat cells): > 30; EC50 ([3]; read-out: EC50 anti-HIV-1, H9 cells): 5570 nM; EC50 ([3]; read-out: EC50 anti-HIV-1, Jurkat cells): 6560 nM
